# Data from patent US20210284742A1, “METHODS OF TREATING OR PREVENTING MUCORMYCOSIS” (University of Maryland, Baltimore, priority 2018, published 2021).
# What was measured:
# [1] = system: A549 alveolar epithelial cells infected with R. delemar spores; test: Measurement of host cell endocytosis of R. delemar by A549 cells (Uvitex differential fluorescence); format: cell-based, human; details: for endocytosis of R. delemar spores: A549 cells pretreated 1 h with 25 μM Gefitinib or 25 μg/ml Cetuximab, 3 h infection, vs vehicle or IgG1 control antibody
# Description: Measurement of host cell endocytosis. 12-mm glass coverslips were seeded with A549 alveolar epithelial cells. […] For controls, host cells will be incubated with DMSO (the solvent used to reconstitute the inhibitor) or 25 μg/ml mouse IgG antibody in parallel. Host cells were then infected with 2×10^5 R. delemar spores. After incubation for 3 h, cells were fixed in 3% paraformaldehyde and stained for 1 h with 1% Uvitex, which specifically binds to chitin in the fungal cell wall. After washing with PBS, coverslips were mounted on a glass slide with a drop of ProLong Gold anti-fade reagent (Molecular Probes) and sealed. The total number of cell-associated organisms (i.e. fungi adhering to the monolayer) per high-powered field were determined by phase-contrast microscopy. The same field will be examined by epifluorescence microscopy, and the number of brightly fluorescent, uninternalized fungi were determined. The number of endocytosed organisms was calculated by subtracting the number of fluorescent fungi from the total number of visible fungi. At least 400 organisms were counted per treatment group in at least 15 different fields per coverslip. Experiments were performed in duplicate or triplicate on at least two separate days.
# 12-mm glass coverslips in 12 well dishes will be seeded with A549 alveolar epithelial cells. Cells were then pre-treated 1 h with inhibitors. For controls, host cells were incubated with the appropriate amount of diluent used to reconstitute the inhibitor in parallel. Host cells were then infected with 2×10^6 Rdelemar. After incubation for 3 h, cells were fixed in 3% paraformaldehyde and stained for 1 h with 1% Uvitex, which specifically binds to chitin in the fungal cell wall. After washing with PBS, coverslips were mounted on a glass slide with a drop of ProLong Gold anti-fade reagent (Molecular Probes) and sealed. The total number of cell-associated organisms (i.e., fungi adhering to the monolayer) per high-powered field was determined by phase-contrast microscopy. The same exact field was examined by epifluorescence microscopy, and the number of brightly fluorescent, uninternalized fungi will be determined. The number of endocytosed organisms is calculated by subtracting the number of fluorescent organisms from the total number of visible organisms. At least 400 organisms were counted in at least 15 different fields per coverslip. Experiments were performed in duplicate on separate days. Data will be expressed as median f interquartile range.
# [2] = system: A549 cells infected with R. delemar; test: R. delemar-induced A549 cell damage (Pierce LDH assay); format: cell-based, human
# Description: Measurement of R. delemar-induced host cell damage. R. delemar-induced A549 cell damage was quantified using the Pierce LDH Assay with slight modifications to the manufacturer's protocol. Briefly, A549 cells were grown in 96-well tissue culture plates for 18-24 hours. […] For controls, host cells will be incubated with DMSO (the solvent used to reconstitute the inhibitor) or 25 μg/ml of mouse IgG antibody in parallel. After 24 hours of incubation at 37° C., 50 μl of the cell culture supernatant was collected from uninfected, infected, and fungi-only control wells and transferred to a 96 well plate to assay for LDH activity. Lysis buffer was added to all infected wells and incubated for 45 min at 37° C. After lysis, 50 μl of cell culture supernatant was transferred to a 96 well plate and used for the LDH Assay Kit per protocol. LDH release was calculated as follows: % Cytotoxicity=[Experimental release−Fungal Cells Spontaneous Control−Host Cells Spontaneous Control]/[Host Cell Maximum Control−Fungal Cells Maximum Control−Host Cells Spontaneous Control]×100. LDH is a cytosolic enzyme but will be released into the cell culture medium upon cell membrane damage. The amount of extracellular LDH is proportional to the amount of cell damage.
# (§1) R. delemar-induced A549 cell damage was quantified using the Pierce LDH assay, with slight modifications to the manufacturer's protocol. Briefly, A549 cells were grown in 96-well tissue culture plates for 18 to 24 h. Cells were then pretreated for 1 h with inhibitor and infected with 1×10^6-2×10^6 germlings suspended in 150 μl F-12K plus 10% FBS. For controls, host cells were incubated with the appropriate amount of diluent used to reconstitute the in parallel. After 24 h of incubation at 37° C., 50 μl of the cell culture supernatant was collected from uninfected, infected, and fungus-only control wells and transferred to a 96-well plate to assay for LDH activity. Lysis buffer was added to all infected wells, and the mixture was incubated for 45 min at 37° C. After lysis, 50 μl of cell culture supernatant was transferred to a 96-well plate and used for the LDH assay kit per the protocol. LDH release was calculated as follows: % cytotoxicity=[(experimental release−fungal cell spontaneous control−host cell spontaneous control)/(host cell maximum control−fungal cell maximum control−host cell spontaneous control)]×100. LDH is a cytosolic enzyme but will be released into the cell culture medium upon cell membrane damage. The amount of extracellular LDH is proportional to the amount of cell damage.
# [3] = system: A549 cells infected with R. oryzae; test: R. oryzae-induced damage of A549 cells (LDH assay); format: cell-based, human; details: 25 μM Mifepristone overnight and/or 25 μM Gefitinib 1 h, 24 h infection (FIG. 14)
# Description: as §1, with “Cells were then pretreated for 1 h with inhibitor and infected with 1×10^6-2×10^6 germlings suspended in 150 μl F-12K plus 10% FBS.” left out
# [4] = system: A549 cells infected with L. corymbifera; test: L. corymbifera-induced damage of A549 cells (LDH assay); format: cell-based, human; details: 25 μM Mifepristone overnight and/or 25 μM Gefitinib 1 h, 24 h infection (FIG. 14)
# [5] = system: A549 cells infected with C. bertholletiae; test: C. bertholletiae-induced damage of A549 cells (LDH assay); format: cell-based, human; details: 25 μM Mifepristone overnight and/or 25 μM Gefitinib 1 h, 24 h infection (FIG. 14)
# [6] = system: other Mucormycosis-causing fungi; test: In vitro infection with other mucormycosis-causing fungi (FIG. 23); format: cell-based
# [7] = spore preparations pre-treated with drug prior to the infection
compound,measurement,setting,value
COc1cc2ncnc(Nc3ccc(F)c(Cl)c3)c2cc1OCCCN1CCOCC1 [Gefitinib],endocytosis of R. delemar spores,[1],significantly reduced
same,endocytosis of R. delemar spores,[1]; listed as Gefinitib,did not completely block
same,endocytosis after pre-treatment of R. delemar spore preparations,[1]; [7],did not reduce
same,R. delemar-induced damage of A549 cells (LDH assay),"[2]; A549 cells pretreated 1 h with 25 μM Gefitinib or 25 μg/ml Cetuximab, 24 h infection, vs vehicle or IgG1 control antibody",significantly reduced
same,R. delemar-induced damage of alveolar epithelial cells (LDH assay),"[2]; Example 3, Mifepristone 25 / Gefitinib 25, 24 h infection, vs vehicle (FIG. 12)",significantly decreased
same,host cell damage after pre-treatment of R. delemar spore preparations,[2]; [7],did not reduce
same,R. oryzae-induced damage,[3],significantly decreased
same,L. corymbifera-induced damage,[4],significantly decreased
same,C. bertholletiae-induced damage,[5],significantly decreased
same,in vitro infection of other Mucormycosis-causing fungi,[6],Inhibits
